Values joined by “and” are separate entries in the source; they are usually repeats but may differ in a detail not shown here. Identical values can stand only once.
How the values were obtained:
[1] = molecular target: T1, Nurr1-LBD (Mus musculus, UniProt Q06219); test: Luciferase reporter assay, Nurr1-LBD, SK-N-BE(2)C cells; type: cell-based; conditions: for Maximum fold activity / EC50: Nurr1 activation; for Maximum fold activity: Supplementary Table 1; for Nurr1 activation (in words): Nurr1 reporter assays
T1 construct: transfected with pCMV-fNurr1, pGAL-Nurr1(LBD), pGAL-Nor1(LBD) or pGAL-Nur77(LBD) and reporter construct; expressed in transfected cells; host or cells: SK-N-BE(2)C (human neuroblastoma), N27-A (rat dopaminergic), MN9D (murine dopaminergic)
T1 sequence (Q06219 360-595 limits assumed): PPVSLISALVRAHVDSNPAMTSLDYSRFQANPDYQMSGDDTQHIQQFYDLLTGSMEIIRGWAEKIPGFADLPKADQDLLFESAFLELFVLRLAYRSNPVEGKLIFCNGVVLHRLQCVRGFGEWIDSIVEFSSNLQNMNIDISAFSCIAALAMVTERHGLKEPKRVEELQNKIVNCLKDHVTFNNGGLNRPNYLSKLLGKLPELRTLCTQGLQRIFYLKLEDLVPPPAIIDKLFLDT
From the text: Nurr1 transactivity was normalized to β-galactosidase activity.

[2] = molecular target: T2, Nurr1-LBD (Homo sapiens, UniProt P43354); test: [3H]-CQ radioligand competition binding assay; conditions: Fig. 1h
T2 sequence (P43354 360-595 limits assumed, species assumed): as the sequence (Q06219 360-595 limits assumed) above
Protocol: Saturation and competition assays were performed as previously described. For saturation assay, 0.2 µM of Nurr1-LBD and 125-10,000 nM of [^3H]-CQ were incubated in binding buffer (20 mM sodium acetate buffer (pH 5.2)) at 4 °C overnight. […] Assay mixtures were applied to GF/B filters (Brandel Inc.) to capture Nurr1-LBD bounded ligands. […] All graphs and IC50 values were generated using the non-linear regression program in GraphPad Prism version 8.0.2.

[3] = molecular target: T2, Nurr1-LBD; test: TR-FRET competition assay with HCQFluo; type: binding; conditions: Fig. 1i
Protocol: TR-FRET assay was performed in PPI Terbium (Tb) detection buffer (PerkinElmer) and contained 0.2 µM of Nurr1-LBD, 0.5 µM of fluorescence-labeled hydroxy-CQ (HCQFluo; Proimaging) and serial concentrations of CQ, 4A7C-301 or RA (10^−4–10^6 nM). Rabbit anti-Nurr1 antibody (3 nM; prepared in our lab) and anti-rabbit IgG-Tb (1:400; Cisbio, 61PARTAF) were included in the assay solution as a donor complex. Assay solutions were loaded in a 384-well OptiPlate™ (PerkinElmer). After 2 h incubation in the dark at room temperature, the FRET signal was measured by excitation at 340 nm and emission at 520 nm for fluorescein and 495 nm for Tb using a VICTOR Nivo plate reader (PerkinElmer). Data were fit using the non-linear regression program in GraphPad Prism version 8.0.2.

[4] = Supplementary Table 1, values in µM
[5] = Supplementary Table 1, values given in nM

## Cc1cc(N2CCN(c3ccccc3)CC2)nc(NC2CCCC(Nc3ccnc4cc(Cl)ccc34)C2)n1 (centres unmarked) [4A7C-608]
[1]
  Maximum fold activity: 6.31 ± 0.82 fold
[1]; [4]
  EC50: 1.14 ± 0.13 µM

## Clc1ccc2c(NCCN3CCN(c4nccc(-n5ccnc5)n4)CC3)ccnc2c1 [4A7C-509]
[1]
  Maximum fold activity: 3.43 ± 0.42 fold
[1]; [5]
  EC50: 0.113 ± 0.0192 µM

## CCN1CCN(c2cc(C)nc(N(CCNc3ccnc4cc(Cl)ccc34)Cc3cccs3)n2)CC1 [4A7C-507]
[1]
  Maximum fold activity: 3.24 ± 0.40 fold
[1]; [5]
  EC50: 0.0949 ± 0.00166 µM

## CCN1CCN(c2nc(NCCCCNc3ccnc4cc(Cl)ccc34)c3ccccc3n2)CC1 [4A7C-401]
[1]
  Maximum fold activity: 3.01 ± 0.13 fold
[1]; [5]
  EC50: 0.00262 ± 0.00096 µM

## Cc1cc(N(CCNc2ccnc3cc(Cl)ccc23)Cc2cccs2)nc(Cl)n1 [4A7C-502]
[1]
  Maximum fold activity: 4.99 ± 0.86 fold
[1]; [5]
  EC50: 0.00051 ± 6e-05 µM

## Cc1cc(N(CCNc2ccnc3cc(Cl)ccc23)Cc2cccs2)nc(N2CCCCC2)n1 [4A7C-505]
[1]
  Maximum fold activity: 3.65 ± 0.31 fold
[1]; [5]
  EC50: 0.00214 ± 0.00045 µM

## CCN1CCN(c2cc(N3CCOCC3)nc(NCCNc3ccnc4cc(Cl)ccc34)n2)CC1 [4A7C-305]
[1]
  Maximum fold activity: 7.60 ± 0.08 fold
  Nurr1 activation (in words): good Nurr1 activities
[1]; [4]
  EC50: 1.04 µM

## Clc1ccc2c(NCCN3CCN(c4ccnc(Cl)n4)CC3)ccnc2c1 [4A7C-203]
[1]
  Maximum fold activity: 4.22 ± 0.16 fold
[1]; [5]
  EC50: 0.017 ± 0.00497 µM

## Cc1cc(N2CCN(C)CC2)nc(NC2CCCC(Nc3ccnc4cc(Cl)ccc34)C2)n1 (centres unmarked) [4A7C-607]
[1]
  Maximum fold activity: 4.50 ± 1.59 fold
[1]; [4]
  EC50: 2.23 ± 0.4 µM

## CCN1CCN(c2cc(N3CCN(C)CC3)nc(NCCNc3ccnc4cc(Cl)ccc34)n2)CC1 [4A7C-306]
[1]
  Maximum fold activity: 10.01 ± 0.06 fold
  Nurr1 activation (in words): good Nurr1 activities
[1]; [5]
  EC50: 0.0255 ± 0.0422 µM

## Cc1cc(N2CCSCC2)nc(NC2CCCC(Nc3ccnc4cc(Cl)ccc34)C2)n1 (centres unmarked) [4A7C-606]
[1]
  Maximum fold activity: 5.72 ± 0.16 fold
[1]; [4]
  EC50: 1.54 ± 0.36 µM

## Cc1cc(N2CCOCC2)nc(N(CCNc2ccnc3cc(Cl)ccc23)Cc2cccs2)n1 [4A7C-503]
[1]
  Maximum fold activity: 2.25 ± 0.26 fold
[1]; [5]
  EC50: 0.00107 ± 0.00012 µM

## Cc1cc(NC2CCCC(Nc3ccnc4cc(Cl)ccc34)C2)nc(N2CCOCC2)n1 (centres unmarked) [4A7C-605]
[1]
  Maximum fold activity: 5.71 ± 0.81 fold
[1]; [4]
  EC50: 1.08 ± 0.37 µM

## Cc1cc(NC2CCCC(Nc3ccnc4cc(Cl)ccc34)C2)nc(Cl)n1 (centres unmarked) [4A7C-601]
[1]
  Maximum fold activity: 3.81 ± 0.17 fold
[1]; [5]
  EC50: 0.11 ± 0.0271 µM

## Cc1cc(N2CCCCC2)nc(NC2CCCC(Nc3ccnc4cc(Cl)ccc34)C2)n1 (centres unmarked) [4A7C-609]
[1]
  Maximum fold activity: 4.83 ± 0.51 fold
[1]; [4]
  EC50: 1.19 ± 0.61 µM

## Cc1cc(N2CCN(C)CC2)nc(N(CCNc2ccnc3cc(Cl)ccc23)Cc2cccs2)n1 [4A7C-504]
[1]
  Maximum fold activity: 4.07 ± 0.53 fold
[1]; [5]
  EC50: 0.431 ± 0.0151 µM

## CCN1CCN(c2cc(N3CCCCC3)nc(NCCNc3ccnc4cc(Cl)ccc34)n2)CC1 [4A7C-304]
[1]
  Maximum fold activity: 2.16 ± 0.03 fold
  Nurr1 activation (in words): good Nurr1 activities
[1]; [5]
  EC50: 0.00967 ± 0.00787 µM

## CCN1CCN(c2nc(C)cc(NCCCNc3ccnc4cc(Cl)ccc34)n2)CC1 [4A7C-102]
[1]
  Maximum fold activity: 3.68 ± 0.04 fold and 3.68 fold
[1]; [5]
  EC50: 0.143 µM

## Cc1cc(N2CCN(CCNc3ccnc4cc(Cl)ccc34)CC2)nc(N2CCN(C)CC2)n1 [4A7C-201]
[1]
  Maximum fold activity: 4.78 ± 0.31 fold
[1]; [5]
  EC50: 0.0146 ± 0.00138 µM

## CC1=C(/C=C/C(C)=C/C=C/C(C)=C/C(=O)O)C(C)(C)CCC1 [RA, Retinoic acid]
[2]; competitor conc. 0.0001 (µM)
  % of Specific binding: 87.8740% and 90.3786% and 97.0000%
[2]; competitor conc. 0.001 (µM)
  % of Specific binding: 101.4488% and 96.8455% and 90.6575%
[2]; competitor conc. 0.01 (µM)
  % of Specific binding: 93.0895% and 89.2521% and 94.1409%
[2]; competitor conc. 0.1 (µM)
  % of Specific binding: 82.0986% and 95.6235% and 83.0156%
[2]; competitor conc. 1 (µM)
  % of Specific binding: 87.3597% and 82.6821% and 79.1883%
[2]; competitor conc. 10 (µM)
  % of Specific binding: 63.0000% and 75.1862% and 67.5572%
[2]; competitor conc. 100 (µM)
  % of Specific binding: 42.2356% and 49.1037% and 43.9315%
[2]; competitor conc. 1000 (µM)
  % of Specific binding: 32.2111% and 35.0331% and 30.1369%
[2]; competitor conc. 10000 (µM)
  % of Specific binding: 18.6132% and 23.0315% and 23.7161%
[2]; competitor conc. 100000 (µM)
  % of Specific binding: 12.2908% and 10.3348% and 16.3962%
[2]; competitor conc. 1000000 (µM)
  % of Specific binding: 8.1147% and 11.0894% and 7.4333%
[3]; 0.05 µM
  Interaction [HTRF]: 2835.2000 and 2760.8790 and 2798.0390
[3]; 0.1 µM
  Interaction [HTRF]: 2218.7830 and 2060.7720 and 2139.7770
[3]; 0.5 µM
  Interaction [HTRF]: 1239.9030 and 1522.7770 and 1381.3400
[3]; 1 µM
  Interaction [HTRF]: 1217.7040 and 1012.7510 and 1115.2270
[3]; 5 µM
  Interaction [HTRF]: 750.0158 and 977.4576 and 863.7367
[3]; 10 µM
  Interaction [HTRF]: 824.6545 and 715.3943 and 770.0244
[3]; 50 µM
  Interaction [HTRF]: 734.0843 and 751.1574 and 742.6208
[3]; 100 µM
  Interaction [HTRF]: 637.6497 and 793.8474 and 715.7485
[3]; 200 µM
  Interaction [HTRF]: 603.5579 and 705.9392 and 654.7485

## CCN1CCN(c2cc(Cl)nc(NCCNc3ccnc4cc(Cl)ccc34)n2)CC1 [4A7C-104]
[1]
  Maximum fold activity: 2.63 ± 0.58 fold
  Nurr1 activation (in words): better Nurr1 EC50 than 4A7C-103
[1]; [5]
  EC50: 0.316 ± 0.0398 µM

## Clc1ccc2c(NCCN3CCN(c4ccnc(N5CCSCC5)n4)CC3)ccnc2c1 [4A7C-204]
[1]
  Maximum fold activity: 4.46 ± 0.67 fold
[1]; [5]
  EC50: 0.0337 ± 0.00034 µM

## CCN1CCN(c2cc(Cl)nc(NCCCNc3ccnc4cc(Cl)ccc34)n2)CC1 [4A7C-103]
[1]
  Maximum fold activity: 3.52 ± 0.19 fold
  Nurr1 activation (in words): diminished Nurr1 activity
[1]; [5]
  EC50: 0.6345 ± 0.00137 µM

## Cc1cc(NC2CCCC(Nc3ccnc4cc(Cl)ccc34)C2)nc(N2CCCCC2)n1 (centres unmarked) [4A7C-603]
[1]
  Maximum fold activity: 6.84 ± 0.52 fold
[1]; [4]
  EC50: 1.22 ± 0.02 µM

## CCN1CCN(c2nccc(N3CCN(CCNc4ccnc5cc(Cl)ccc45)CC3)n2)CC1 [4A7C-206]
[1]
  Maximum fold activity: 10.71 ± 0.44 fold
[1]; [4]
  EC50: 10 ± 0.76 µM

## Cc1cc(N(CCNc2ccnc3cc(Cl)ccc23)Cc2ccc3c(c2)OCO3)nc(N2CCN(C)CC2)n1 [4A7C-501]
[1]
  Maximum fold activity: 10.51 ± 0.85 fold
[1]; [4]
  EC50: 3.39 ± 0.26 µM

## Cc1cc(N2CCCC2)nc(NC2CCCC(Nc3ccnc4cc(Cl)ccc34)C2)n1 (centres unmarked) [4A7C-604]
[1]
  Maximum fold activity: 4.24 ± 0.45 fold
[1]; [4]
  EC50: 1.03 ± 0.42 µM

## CCN1CCN(c2cc(NCCNc3ccnc4cc(Cl)ccc34)nc(N3CCN(CC)CC3)n2)CC1 [4A7C-303]
[1]
  Maximum fold activity: 9.50 ± 0.22 fold
  Nurr1 activation (in words): good activity
[1]; [5]
  EC50: 0.0085 ± 0.0186 µM

## Cc1cc(N2CCN(CCNc3ccnc4cc(Cl)ccc34)CC2)nc(N2CCCC2)n1 [4A7C-202]
[1]
  Maximum fold activity: 3.78 ± 0.25 fold
[1]; [5]
  EC50: 0.00128 ± 0.00063 µM

## Cc1cc(N(CCNc2ccnc3cc(Cl)ccc23)Cc2cccs2)nc(N2CCOCC2)n1 [4A7C-506]
[1]
  Maximum fold activity: 4.49 ± 0.43 fold
[1]; [5]
  EC50: 0.00983 ± 0.00029 µM

## Cc1cc(NC2CCCC(Nc3ccnc4cc(Cl)ccc34)C2)nc(N2CCN(c3ccccc3)CC2)n1 (centres unmarked) [4A7C-602]
[1]
  Maximum fold activity: 3.44 ± 0.28 fold
[1]; [4]
  EC50: 3.86 ± 0.26 µM

Reference: paper PMC10354055, “An optimized Nurr1 agonist provides disease-modifying effects in Parkinson’s disease models” (Nature Communications, 2023)
